Patent publication US12065436B2, “Cardiac sarcomere inhibitors” (Cytokinetics, Inc., priority 2018, dated 2024)
Read-outs that look alike come from different tables or passages of the source.

Legend:
[1] = molecular target: bovine cardiac myofibrils (full-length cardiac myosin ATPase in the native sarcomere) (Bos taurus (Bovine), UniProt Q9BE39); assay: Skinned bovine cardiac myofibril ATPase assay (PK/LDH-coupled); format: biochemical; conditions: Ca2+ activating to 75% of maximal rate; for CDMF75 IC15: concentration giving 15% inhibition; for IC50: read-out: CDMF75 IC50
Chain of bovine cardiac myofibrils (full-length cardiac myosin ATPase in the native sarcomere) (Q9BE39 whole entry): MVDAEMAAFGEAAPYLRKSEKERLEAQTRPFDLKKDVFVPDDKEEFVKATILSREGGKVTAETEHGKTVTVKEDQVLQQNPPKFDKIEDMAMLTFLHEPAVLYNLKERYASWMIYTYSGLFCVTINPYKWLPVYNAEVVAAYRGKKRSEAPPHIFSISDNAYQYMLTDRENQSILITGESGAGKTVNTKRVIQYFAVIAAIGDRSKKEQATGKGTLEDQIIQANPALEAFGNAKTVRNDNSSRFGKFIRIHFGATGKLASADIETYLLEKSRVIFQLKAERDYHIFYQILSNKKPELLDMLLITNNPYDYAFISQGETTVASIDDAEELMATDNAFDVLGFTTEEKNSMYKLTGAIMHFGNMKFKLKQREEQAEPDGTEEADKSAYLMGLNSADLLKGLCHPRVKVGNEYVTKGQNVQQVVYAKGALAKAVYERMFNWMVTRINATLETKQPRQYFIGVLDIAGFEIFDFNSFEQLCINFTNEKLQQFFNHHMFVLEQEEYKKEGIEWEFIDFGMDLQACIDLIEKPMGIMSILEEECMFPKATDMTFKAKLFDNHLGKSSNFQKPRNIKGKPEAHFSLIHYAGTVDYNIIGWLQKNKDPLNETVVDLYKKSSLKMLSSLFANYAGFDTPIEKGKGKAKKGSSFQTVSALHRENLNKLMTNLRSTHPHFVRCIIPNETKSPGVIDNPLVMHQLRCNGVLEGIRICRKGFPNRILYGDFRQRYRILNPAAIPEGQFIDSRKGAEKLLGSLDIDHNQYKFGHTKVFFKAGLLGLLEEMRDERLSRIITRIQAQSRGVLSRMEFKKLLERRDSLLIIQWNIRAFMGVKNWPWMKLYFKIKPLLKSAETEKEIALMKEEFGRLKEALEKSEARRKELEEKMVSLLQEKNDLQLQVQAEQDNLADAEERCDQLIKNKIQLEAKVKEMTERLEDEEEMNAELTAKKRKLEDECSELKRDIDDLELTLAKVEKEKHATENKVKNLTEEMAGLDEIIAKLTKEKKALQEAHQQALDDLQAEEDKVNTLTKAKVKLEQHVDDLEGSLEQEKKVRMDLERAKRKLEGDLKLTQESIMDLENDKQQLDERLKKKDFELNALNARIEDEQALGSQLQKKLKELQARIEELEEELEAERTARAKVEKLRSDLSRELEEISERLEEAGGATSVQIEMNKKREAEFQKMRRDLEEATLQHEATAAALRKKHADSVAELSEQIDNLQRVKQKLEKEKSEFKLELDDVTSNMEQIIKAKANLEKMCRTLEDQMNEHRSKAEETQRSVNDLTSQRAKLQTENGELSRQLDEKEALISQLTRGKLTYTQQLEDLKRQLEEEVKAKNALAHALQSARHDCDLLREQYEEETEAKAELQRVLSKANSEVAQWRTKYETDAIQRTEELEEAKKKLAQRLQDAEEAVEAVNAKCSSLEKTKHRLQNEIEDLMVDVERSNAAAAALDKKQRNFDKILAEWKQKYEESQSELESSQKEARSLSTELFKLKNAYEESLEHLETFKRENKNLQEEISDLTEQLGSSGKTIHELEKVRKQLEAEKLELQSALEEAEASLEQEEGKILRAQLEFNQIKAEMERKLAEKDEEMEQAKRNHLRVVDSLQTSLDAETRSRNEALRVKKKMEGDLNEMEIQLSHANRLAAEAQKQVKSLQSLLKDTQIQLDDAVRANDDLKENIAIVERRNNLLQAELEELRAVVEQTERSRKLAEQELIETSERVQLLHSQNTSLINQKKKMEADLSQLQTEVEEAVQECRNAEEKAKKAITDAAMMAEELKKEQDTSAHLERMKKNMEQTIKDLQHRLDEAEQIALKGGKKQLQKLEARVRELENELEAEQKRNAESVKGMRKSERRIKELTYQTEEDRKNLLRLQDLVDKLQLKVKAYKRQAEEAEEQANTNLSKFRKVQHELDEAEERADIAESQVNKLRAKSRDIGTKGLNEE
Chain of bovine cardiac myofibrils (full-length cardiac myosin ATPase in the native sarcomere) (P85100 whole entry partner): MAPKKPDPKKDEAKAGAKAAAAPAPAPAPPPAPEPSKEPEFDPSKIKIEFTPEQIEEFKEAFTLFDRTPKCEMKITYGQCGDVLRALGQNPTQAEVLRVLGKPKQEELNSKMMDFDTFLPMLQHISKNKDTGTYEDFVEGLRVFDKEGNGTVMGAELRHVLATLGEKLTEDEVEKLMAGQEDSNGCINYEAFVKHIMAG
Chain of bovine cardiac myofibrils (full-length cardiac myosin ATPase in the native sarcomere) (Q3SZE5 whole entry partner): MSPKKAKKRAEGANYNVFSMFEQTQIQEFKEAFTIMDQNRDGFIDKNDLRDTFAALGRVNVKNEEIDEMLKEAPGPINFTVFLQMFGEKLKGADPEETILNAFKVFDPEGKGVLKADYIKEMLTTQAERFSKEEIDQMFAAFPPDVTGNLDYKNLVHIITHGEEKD
Procedure, shortened: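 Inhibition of steady-state ATPase read at 340 nm through a PK/LDH-coupled NADH system (0.5 mM NADH, 1.5 mM PEP). Detergent-skinned bovine cardiac myofibrils, 1 mg/mL, were tested at pH 6.8 in PIPES/MgCl2 with 50 μM ATP and calcium adjusted to give pCa50 or pCa75 activation.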

[2] = system: adult cardiac ventricular rat myocytes; assay: Adult ventricular myocyte contractility (fractional shortening); format: cell-based; conditions: 5 min, 10 μM compound, 5 min perfusion, read-out: % FS (% reduction from baseline) ± SEM
Procedure: Adult male Sprague-Dawley rats were anesthetized and the hearts were quickly excised, rinsed and the ascending aorta was cannulated. Continuous retrograde perfusion was initiated on the hearts at a perfusion pressure of 60 cm H2O. Hearts were first perfused with a nominally Ca^2+-free modified Krebs solution of the following composition: 113 mM NaCl, 4.7 mM KCl, 0.6 mM KH2PO4, 0.6 mM Na2HPO4, 1.2 mM MgSO4, 12 mM NaHCO3, 10 mM KHCO3, 30 mM taurine, 5.5 mM glucose and 10 mM Hepes (all Sigma). This medium is not recirculated and is continually aerated with a 95% O2/5% CO2 mixture. After approximately 3 minutes the heart was perfused with a modified Krebs buffer supplemented with collagenase (Worthington) and 12.5 μM final calcium concentration. The heart was removed from the cannulae after the heart appeared blanched and soft in appearance. The atria and vessels were removed and the ventricles were gently dissected into smaller pieces with forceps. The tissue was homogenized by repeated pipette trituration and the collagenase reaction was stopped by 10% bovine calf serum (BCS), sedimentation and resuspension in perfusion buffer containing 5% BCS and 12.5 uM CaCl2). Myocytes were made calcium tolerant by stepwise addition of a CaCl2) solution to a final concentration of 1.2 mM. Cells were then washed and resuspended in Tyrode's buffer (137 mM NaCl, 3.7 mM KCl, 0.5 mM MgCl, 11 mM glucose, 4 mM Hepes, and 1.2 mM CaCl2), pH 7.4). Cells were kept for 60 min at 37° C. prior to initiating experiments and used within 5 hrs of isolation. […] Additionally, only cells whose basal contractility was between 3 and 8% were used in subsequent experiments with compounds.
Aliquots of myocytes in Tyrode's buffer were placed in perfusion chambers (series 20 RC-27NE; Warner Instruments) complete with heating platforms. Myocytes were allowed to attach, the chambers were heated to 37° C., and the cells were perfused with 37° C. Tyrode's buffer. Myocytes were field stimulated at 1 Hz in with platinum electrodes (20% above threshold). Only cells that had clear striations and were quiescent prior to pacing were used for contractility experiments. To determine basal contractility, myocytes were imaged through a 40× objective. […] Once cell contraction was stable over time, test compounds (0.01-15 μM) were perfused into the chambers on the myocytes for 5 minutes. Contractility of the myocytes and contraction and relaxation velocities were then recorded using edge detection.
Five or more individual myocytes were tested per compound from two or more different myocyte preparations. For each cell, twenty or more contractility transients at basal (defined as 1 min prior to compound infusion) and after compound addition (defined as 5 min after starting compound perfusion), were averaged and compared. These average transients were analyzed using the IonWizard software (IonOptix) to determine changes in diastolic length and fractional shortening. Fractional shortening was calculated as: ((resting length−length at peak contraction) divided by the resting length). The percent change in fractional shortening from baseline was calculated as: ((post-dose fractional shortening/basal fractional shortening)*100). The percent reduction in fractional shortening from baseline was calculated as: (100−percent change in fractional shortening from baseline). Maximum contraction and relaxation velocities (um/sec) was also determined. Results from individual cells are averaged and the SEM calculated.

[3] = system: rat cardiac contractility (left ventricle fractional shortening); assay: Echocardiography of acute effect on rat cardiac contractility, oral gavage; format: in vivo, Sprague Dawley rats; conditions: for inhibition in vivo at 10 mg/kg / IC50 / inhibition in vivo at 2 mg/kg / inhibition in vivo at 6 mg/kg / inhibition in vivo at 4.5 mg/kg: Rattus norvegicus; for inhibition in vivo at 10 mg/kg / inhibition in vivo at 2 mg/kg / inhibition in vivo at 6 mg/kg / inhibition in vivo at 4.5 mg/kg: oral gavage; for IC50 / IC10: oral dosing, estimated; for IC50: plasma concentration at which fractional shortening is 50% of pre-dose baseline; for IC10: plasma concentration at which
Procedure: (§1) Assessment of in vivo cardiac function by echocardiography was performed in male Sprague Dawley rats under isoflurane (1-3%) anesthesia. 2-D M-mode images of the left ventricle were acquired in the parasternal long-axis view before, during, and after administration of compounds by continuous IV infusion or oral gavage. In vivo fractional shortening was determined by M-mode image analysis with the following calculation: ((End diastolic diameter−end systolic diameter)/end diastolic diameter×100). For continuous IV infusion experiments, three pre-dose baseline M-mode images were taken at 1 minute intervals prior to infusion of compound. Compounds were formulated in 50% Propylene Glycol (PG): 16% Captisol: 10% dimethylacetamide (DMA) and delivered via a jugular vein catheter at the rate of 1 mL/kg/h. During infusion, M-mode images were taken at 5 minute intervals. The infusion stopped when fractional shortening reached up to a 60% reduction from baseline. Blood samples were taken to determine the plasma concentration of the compounds. Data was reported as an estimated IC50 value, which is the concentration at which fractional shortening is 50% of the pre-dose baseline contractility.
For oral dosing studies, three pre-dose baseline M-Mode images were taken at 1 minute intervals prior to compound administration. Compounds were formulated in a 0.5% hydroxypropyl methylcellulose 2910 (HPMC 2910): 0.1% Tween 80 suspension and delivered as a single dose (5 mL/kg) by oral gavage. Rats were lightly anesthetized for M-Mode echocardiography measurements at select time points over a 24 hour period. Different dose levels were evaluated for each compound. The compound effect on cardiac fractional shortening at the highest dose evaluated is presented in Table D as a percent reduction of baseline fractional shortening (=100%).
Concurrent with echocardiography measurements, blood samples were taken to determine the corresponding compound plasma concentration.

[4] = system: rat cardiac contractility (left ventricle fractional shortening); assay: Echocardiography of acute effect on rat cardiac contractility, continuous IV infusion; format: in vivo, Sprague Dawley rats; conditions: plasma concentration at which fractional shortening is 50% of pre-dose baseline, estimated, read-out: IC50 (Mean ± S.D.)
Procedure: as §1

[5] = 1 h, 1-2 h post dose, read-out: FS (% reduction from baseline) at 1-2 h post dose (Mean ± S.D.)
[6] = 4 h post dose, read-out: FS (% reduction from baseline) at 4 h post dose (Mean ± S.D.)

Row | Compound | CDMF75 IC15 [1] [µM] | IC50 [1] [µM] | inhibition at 10 µM [2] [%] | IC50 [3] [µM] | IC10 [3] [µM] | IC50 ([4]; Rattus norvegicus) [µM] | further results
1 | Cc1cc(C(=O)NC2CCc3cc(-c4noc(C(F)F)n4)ccc32)ccn1 (stereo not shown) [Compound 5, N-(5-(5-(difluoromethyl)-1,2,4-oxadiazol-3-yl)-2,3-dihydro-1H-inden-1-yl)-2-methylisonicotinamide] | 1.14 | 5.1 | 73.2 ± 7.1 |  |  |  | 
2 | Cc1cc(C(=O)N[C@@H]2CCc3cc(-c4noc(C)n4)ccc32)ccn1 [Compound 31, (R)-2-methyl-N-(5-(5-methyl-1,2,4-oxadiazol-3-yl)-2,3-dihydro-1H-inden-1-yl)isonicotinamide] | 1.0 | 3.6 | 23.3 ± 18.9 |  |  |  | 
3 | Cn1nnc(C(=O)N[C@@H]2CCc3cc(-c4noc(C(F)F)n4)ccc32)n1 [Compound 82, (R)-N-(5-(5-(difluoromethyl)-1,2,4-oxadiazol-3-yl)-2,3-dihydro-1H-inden-1-yl)-2-methyl-2H-tetrazole-5-carboxamide] | 0.5 | 2 | 89.6 | 4.9 | 1.5 |  | inhibition in vivo at 10 mg/kg [3, 5]: 65 ± 6%; inhibition in vivo at 10 mg/kg [3, 6]: 55 ± 8%
4 | Cc1cnoc1C(=O)N[C@@H]1CCc2cc(-c3noc(C(C)C)n3)ccc21 [Compound 116, (R)-N-(5-(5-isopropyl-1,2,4-oxadiazol-3-yl)-2,3-dihydro-1H-inden-1-yl)-4-methylisoxazole-5-carboxamide] | 0.3 | 1.5 | 72.5 |  |  |  | 
5 | CCc1nc(-c2ccc3c(c2)CC[C@H]3NC(=O)c2nnn(C)n2)no1 [Compound 183, (R)—N-(5-(5-ethyl-1,2,4-oxadiazol-3-yl)-2,3-dihydro-1H-inden-1-yl)-2-methyl-2H-tetrazole-5-carboxamide] | 0.3 | 0.9 |  | 0.9 | 0.2 | 1.2 ± 0.02 | inhibition in vivo at 2 mg/kg [3, 5]: 42 ± 16%; inhibition in vivo at 2 mg/kg [3, 6]: 15 ± 13%
6 | CCc1nc(-c2ccc3c(c2)OC[C@H]3NC(=O)c2cnn(C)c2)no1 [Compound 238, (S)—N-(6-(5-ethyl-1,2,4-oxadiazol-3-yl)-2,3-dihydrobenzofuran-3-yl)-1-methyl-1H-pyrazole-4-carboxamide] | 0.3 | 1 |  | 4.9 | 0.9 | 5.7 ± 0.31 | inhibition in vivo at 2 mg/kg [3, 5]: 52 ± 10%; inhibition in vivo at 2 mg/kg [3, 6]: 59 ± 6%
7 | CCc1cc(-c2ccc3c(c2)CC[C@H]3NC(=O)c2nnn(C)n2)no1 [Compound 253, (R)—N-(5-(5-ethylisoxazol-3-yl)-2,3-dihydro-1H-inden-1-yl)-2-methyl-2H-tetrazole-5-carboxamide] | 0.3 | 0.8 |  | 1.3 | 0.3 | 1.7 ± 0.08 | inhibition in vivo at 6 mg/kg [3, 5]: 56 ± 9%; inhibition in vivo at 6 mg/kg [3, 6]: 33 ± 7%
8 | CCc1nc(-c2ccc3c(c2)CC[C@H]3NC(=O)c2ccnc(C)c2)no1 [Compound 387, (R)-N-(5-(5-ethyl-1,2,4-oxadiazol-3-yl)-2,3-dihydro-1H-inden-1-yl)-2-methylisonicotinamide] | 0.5 | 1.3 |  | 1.6 | 0.4 | 2.4 ± 0.08 | inhibition in vivo at 6 mg/kg [3, 5]: 59 ± 24%; inhibition in vivo at 6 mg/kg [3, 6]: 50 ± 18%
9 | CCc1cc(-c2ccc3c(c2)OC[C@H]3NC(=O)c2cn[nH]c2C)no1 [Compound 433, (S)—N-(6-(5-ethylisoxazol-3-yl)-2,3-dihydrobenzofuran-3-yl)-5-methyl-1H-pyrazole-4-carboxamide] | 0.3 | 0.9 |  |  |  | 4.3 ± 0.11 | 
10 | Cc1cc(-c2ccc3c(c2)OC[C@H]3NC(=O)c2cn[nH]c2C)no1 [Compound 434, (S)-5-methyl-N-(6-(5-methylisoxazol-3-yl)-2,3-dihydrobenzofuran-3-yl)-1H-pyrazole-4-carboxamide] | 0.7 | 2.4 |  |  |  | 9.3 ± 0.15 | 
11 | CCc1nc(-c2ccc3c(c2)CC[C@H]3NC(=O)c2cnn(CCO)c2)no1 [Compound 474, (R)—N-(5-(5-ethyl-1,2,4-oxadiazol-3-yl)-2,3-dihydro-1H-inden-1-yl)-1-(2-hydroxyethyl)-1H-pyrazole-4-carboxamide] | 0.6 | 2.2 | 75.2 | 1.4 | 0.2 |  | inhibition in vivo at 6 mg/kg [3, 5]: 64 ± 8%; inhibition in vivo at 6 mg/kg [3, 6]: 27 ± 6%
12 | CCc1nc(-c2ccc3c(c2)CC[C@H]3NC(=O)c2cnn(C[C@@H](C)O)c2)no1 [Compound 542, N-[(1R)-5-(5-ethyl-1,2,4-oxadiazol-3-yl)-2,3-dihydro-1H-inden-1-yl]-1-[(2R)-2-hydroxypropyl]-1H-pyrazole-4-carboxamide] | 0.9 | 3.5 | 68.4 | 3.5 | 0.9 |  | inhibition in vivo at 4.5 mg/kg [3, 5]: 71 ± 1%; inhibition in vivo at 4.5 mg/kg [3, 6]: 54 ± 7%
13 | (R)—N-(7-(5-ethyl-1,2,4-oxadiazol-3-yl)chroman-4-yl)-1-methyl-1H-pyrazole-5-carboxamide [Compound 538] | 0.7 | 3.3 |  |  |  |  | IC50 [4]: 10.9 ± 0.37 µM
